Measured values reported in patent US6780633B2, “Methods for producing optically active amino acids” (Sumitomo Chemical Company, Limited, priority 1999, dated 2004).

Legend:
Assay type in all cases: cell-based
[1] = system: Saccharopolyspora hirsuta JCM9109; experiment: effect of aminotransferase inhibitor on production of L-p-chlorophenylalanine from D-form by cells, at equilibrium; settings: inhibitor final 1 mM; 30° C., 24 hours (reaction equilibrated); absence of inhibitor = 100%
Method: (§1) A 500 mL Sakaguchi flask containing 100 ml of a sterilized medium (pH 7.0) containing 1.0% (w/v) glycerol, 0.2% (w/v) polypeptone (Nihon Pharmaceutical Co., Ltd.), 0.3% (w/v) meat extract (Kyokuto Pharmaceutical Ind., Co., Ltd.), 0.3% (w/v) yeast extract (Difco), 0.1% (w/v) dipotassium phosphate, 0.1% (w/v) potassium mono phosphate, 0.03% (w/v) magnesium sulfate heptahydrate was inoculated with 1 mL of a culture of Nocardia diaphanozonaria strain JCM3208 which had previously been cultivated in a medium of the similar composition, and incubated at 30° C. for 2 days with a reciprocal shaking. 80 ml of this culture was subjected to centrifugation (10000 g, 10 minutes) to collect wet cells. The collected wet cells were washed twice with 80 ml of 100 mM potassium phosphate buffer (pH 7.0) and the wet cells thus obtained was suspended in 4 mL of 100 mM potassium phosphate buffer (pH 7.0) to obtain a cell suspension.
(§2) 0.2 ml of the cell suspension was combined with 1.8 mL of 100 mM potassium phosphate buffer (pH7.0) containing D-p-chlorophenylalanine at 5.5 mM and an aminotransferase inhibitor shown in Table 6 at 1.1 mM, and incubated at 30° C. for 2 hours with a reciprocal shaking at 250 rpm. Each reaction mixture was analyzed at an early stage of the reaction by HPLC to quantify L-p-chlorophenylalanine produced by the reaction. The results are represented as the relative values each based on 100% production of L-p-chlorophenylalanine in the absence of the respective aminotransferase inhibitor.
(§3) The reaction was performed similarly as in Example 6 except for using each of the microorganisms shown in Table 8 instead of Nocardia diaphanozonaria strain JCM3208 and except that the reaction time was 24 hours (when the reaction was equilibrated).

[2] = system: Arthrobacter pascens IFO12139; experiment: as above; settings: inhibitor final 1 mM; 30° C., 24 hours (reaction equilibrated); absence of inhibitor = 100%
Method: as §1, §2, §3

[3] = system: Streptomyces roseus IFO12818; experiment: as above; settings: inhibitor final 1 mM; 30° C., 24 hours (reaction equilibrated); absence of inhibitor = 100%
Method: as §1, §2, §3

[4] = system: Pseudomonas oxalaticus IFO13593; experiment: as above; settings: inhibitor final 1 mM; 30° C., 24 hours (reaction equilibrated); absence of inhibitor = 100%
Method: as §1, §2, §3

[5] = system: Pseudomonas oleovorans IFO13583; experiment: effect of aminotransferase inhibitor on production of L-p-chlorophenylalanine from D-form by cells; settings: inhibitor final 1 mM; 30° C., 2 hours; absence of inhibitor = 100%
Method: as §1, §2
(§4) The reaction was performed similarly as in Example 6 except for using each of the microorganisms shown in Table 7 instead of Nocardia diaphanozonaria strain JCM3208.

[6] = system: Flavimonas oryzihabitans JCM2952; experiment: as above; settings: inhibitor final 1 mM; 30° C., 2 hours; absence of inhibitor = 100%
Method: as §1, §2, §4

[7] = system: Pseudomonas chlororaphis IFO3521; experiment: as above; settings: inhibitor final 1 mM; 30° C., 2 hours; absence of inhibitor = 100%
Method: as §1, §2, §4

[8] = system: Rhizobium meliloti IFO14782; experiment: as above; settings: inhibitor final 1 mM; 30° C., 2 hours; absence of inhibitor = 100%
Method: as §1, §2, §4

[9] = system: Pseudomonas taetrolens IFO3460; experiment: as above; settings: inhibitor final 1 mM; 30° C., 2 hours; absence of inhibitor = 100%
Method: as §1, §2, §4

[10] = system: Klebsiella planticola JCM7251; experiment: as above; settings: inhibitor final 1 mM; 30° C., 2 hours; absence of inhibitor = 100%
Method: as §1, §2, §4

[11] = system: Nocardia diaphanozonaria strain JCM3208; experiment: as above; settings: inhibitor final concentration 1 mM; D-p-chlorophenylalanine 5.5 mM; 30° C., 2 hours (early stage); absence of inhibitor = 100%
Method: as §1, §2

Row | SMILES | Relative value (%) of production of L-p-chlorophenylalanine [1] [%] | Relative value (%) of production of L-p-chlorophenylalanine [2] [%] | Relative value (%) of production of L-p-chlorophenylalanine [3] [%] | Relative value (%) of production of L-p-chlorophenylalanine [4] [%] | Relative value (%) of production of L-p-chlorophenylalanine [5] [%] | Relative value (%) of production of L-p-chlorophenylalanine [6] [%] | Relative value (%) of production of L-p-chlorophenylalanine [7] [%] | Relative value (%) of production of L-p-chlorophenylalanine [8] [%] | Relative value (%) of production of L-p-chlorophenylalanine [9] [%] | Relative value (%) of production of L-p-chlorophenylalanine [10] [%] | Relative value (%) of production of L-p-chlorophenylalanine [11] [%]
1 | N[C@@H](CCl)C(=O)O [β-Chloro-L-alanine] | 101 | 84 | 95 | 91 | 94 | 92 | 102 | 96 | 87 | 92 | 121
2 | N[C@H](CCl)C(=O)O [β-Chloro-D-alanine] | 99 | 83 | 114 | 124 | 91 | 144 | 85 | 108 | 84 | 90 | 108
3 | NC1C=CC=C(C(=O)O)C1 (racemic) [DL-Gabaculine] | 97 | 96 | 97 | 105 | 87 | 105 | 72 | 88 | 75 | 102 | 92
